The results in this text go back to patent US8669254B2, “Pyridine, pyridazine, pyrimidine or pyrazine carboxamides as HDL-cholesterol raising agents” (Hoffman-La Roche Inc., priority 2010, dated 2014).

The subject of one data set is ABCA1 protein. Description: Detection of upregulation of ABCA1 protein in cells (ApoA-I binding, high content image analysis). The class given is cell-based. The following applies: THP-1 macrophage cells; for % increase of ABCA1 at 3 μM: compound at 3 μM, 24 hrs. As to the method:
The ability of compounds of the invention to increase the level of ABCA1 protein is determined in replicate cultures of THP-1 macrophage cells in 96-well microplates. Cells are plated at an initial density of 100,000 cells/well in 100 μl medium and differentiated to adherent macrophages with the addition of PMA (100 nM) for 68 hrs in 10% fetal bovine serum, 3 μl/L of b-mercaptoethanol, RPMI-1640 medium. Then, cells are incubated with RPMI-1640 medium containing 1% FCS, 25 μg/ml acetylated LDL, for 24 hours at 37°. Following incubation with acetylated LDL, cells are washed twice with 50 μl PBS and incubated with 100 μl of RPMI-1640 medium containing the compound of interest solubilized in DMSO for an additional 24 hrs. The final DMSO concentration in presence of cells is maintained at 0.5%. ApoA-I binding assay using High Content Image Analysis is initiated by replacing with fresh medium, RPMI without Phenol Red, 0.2% BSA containing AlexaFluor®647 labeled ApoA-I for 2 h/37° C./5% CO2. Then, cells are fixed with 4% Formaldehyde in PBS (15 min, RT). Following Nuclei are stained with Hoechst solution (3 μM PBS) and Cytoplasm with Cell Mask Blue (2 μg/ml PBS), 15 min, RT. Finally the stained cells are fixed with a second round of formaldehyde treatment. Fixed stained cells are washed and kept in PBS at 4° C. and can be read immediately until one month after preparation.
The Alexa Fluor 647-labeled Apolipoprotein A-I (20 nM) was prepared as follows: Human recombinant Apolipoprotein A-I (ApoA-I) was exchanged to a buffer of 0.02 M NaHCO3 at pH 8.2 on an NAP desalting column (GE Healthcare) and brought to a concentration to 40 μM (1.13 mg/ml) by adjustment with the same buffer. The ApoA-I was fluorescently labeled by incubation with Alexa Fluor carboxylic acid succimidyl ester (Alexa Fluor 647, Invitrogen A-20006) at a 2:1 molar ratio (Alexa to ApoA-I) for 1 h under shaking at RT). The remaining unconjugated label was removed by buffer exchange to 0.02M NaHCO3 at pH 8.2.
Imaging and data collection were performed on an OPERA confocal microplate imaging reader using a 20× water immersion objective and UV360 or 405 laser to identify the cell nuclei and a 635 laser to identify the fluorescent ApoA-I. Eight fields of view are captured per well. Image capture and analysis was performed with the Acapella software. Background fluorescence detected in control wells without ApoA-I was subtracted.
Using XLfit3 program (ID Business Solutions Ltd. UK), the model 205 for Dose Response One Site is used to calculate the EC50 values. […] Particularly, the compounds of the present invention have EC50 values in a range of 0.1 μM to 3 μM.

The target of another data set is T1, human CB2 receptor (Homo sapiens, UniProt P34972).
T1 construct: expressed in transfected cells; host or cells: human embryonic kidney (HEK) cells, Semliki Forest Virus system, membrane preparation
T1 sequence (P34972 whole entry): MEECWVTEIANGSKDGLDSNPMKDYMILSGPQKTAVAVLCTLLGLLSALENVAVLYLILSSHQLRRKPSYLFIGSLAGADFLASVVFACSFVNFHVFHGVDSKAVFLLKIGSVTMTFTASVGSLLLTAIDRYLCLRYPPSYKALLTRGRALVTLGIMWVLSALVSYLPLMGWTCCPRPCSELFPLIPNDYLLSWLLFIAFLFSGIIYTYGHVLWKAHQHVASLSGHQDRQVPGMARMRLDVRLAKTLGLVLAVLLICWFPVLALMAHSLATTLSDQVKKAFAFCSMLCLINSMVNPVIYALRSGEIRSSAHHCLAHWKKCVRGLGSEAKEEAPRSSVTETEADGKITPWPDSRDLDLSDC
Nature of the data set: CB2 receptor affinity ([3H]-CP-55,940 displacement). The class given is binding. Conditions: HEK cell membranes, radioligand [3H]-CP-55,940. The procedure: The affinity of the compounds of the invention for cannabinoid CB2 receptors was determined using membrane preparations of human embryonic kidney (HEK) cells in which the human CB2 receptor is transiently transfected using a Semliki Forest Virus system in conjunction with [^3H]-CP-55,940 as radioligand. After incubation of freshly prepared cell membrane preparation with the [^3H]-ligand, with or without addition of compounds of the invention, separation of bound and free ligand was performed by filtration over glass fiber filters. Radioactivity on the filter was measured by scintillation counting.
(§1) The ability of the compounds to displace the radioligand [^3H]-CP-55,940 was measured at a concentration of 10 μM and values provided as [% inhibition @ 10 μM] both for the CB 1 and CB2 receptor assay, The lower % inhibition is, the lower the likelihood of side effects based on CB1 or CB2 receptor inhibition is.

The next data set addresses T2, human CB1 receptor (Homo sapiens, UniProt P21554).
T2 construct: expressed in transfected cells; host or cells: human embryonic kidney (HEK) cells, Semliki Forest Virus system, membrane preparation
Nature of the data set: CB1 receptor affinity ([3H]-CP-55,940 displacement). The data set is classed as binding. Conditions: read-out: CB1 receptor affinity [% inhibition @ 10 μM]. As to the method:
The affinity of the compounds of the invention for cannabinoid receptors was determined using membrane preparations of human embryonic kidney (HEK) cells in which the human CB1 receptor is transiently transfected using a Semliki Forest Virus system in conjunction with [3H]-CP-55,940 as radioligand. After incubation of freshly prepared cell membrane preparation with the [^3H]-ligand, with or without addition of compounds of the invention, separation of bound and free ligand was performed by filtration over glass fiber filters. Radioactivity on the filter was measured by scintillation counting.
as §1

Like-named read-outs stand apart in the source and are kept apart here.

Usually melting point stands for the temperature, or range, at which the solid turns liquid. The term EC50 denotes the midpoint of the concentration-response curve. Higher therefore signals a need for much substance. Broadly, the inhibition is the share of the control response that was lost under treatment.

T2 sequence (P21554 whole entry): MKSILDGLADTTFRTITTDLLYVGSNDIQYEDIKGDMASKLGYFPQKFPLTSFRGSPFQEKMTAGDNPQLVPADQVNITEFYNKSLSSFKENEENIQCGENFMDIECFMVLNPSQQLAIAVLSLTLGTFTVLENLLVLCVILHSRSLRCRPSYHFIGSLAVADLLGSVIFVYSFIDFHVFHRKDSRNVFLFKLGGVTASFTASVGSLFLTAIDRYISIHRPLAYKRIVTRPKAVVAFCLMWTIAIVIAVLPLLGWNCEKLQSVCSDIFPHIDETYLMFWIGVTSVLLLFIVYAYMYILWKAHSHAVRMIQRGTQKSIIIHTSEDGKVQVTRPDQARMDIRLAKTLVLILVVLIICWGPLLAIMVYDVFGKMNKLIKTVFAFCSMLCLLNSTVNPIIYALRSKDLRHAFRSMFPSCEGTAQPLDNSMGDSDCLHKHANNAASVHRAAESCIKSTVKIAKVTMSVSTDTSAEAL

With `CO/N=C1\CCCC[C@@H]1NC(=O)c1cnc(O[C@@H](C)C(F)(F)F)c(-c2ccc(Cl)cc2)c1` [Example 30, 5-(4-Chlorophenyl)-N-((S,E)-2-(methoxyimino)cyclohexyl)-6-((S)-1,1,1-trifluoropropan-2-yloxy)nicotinamide], the melting point fell in the range of 119 to 121 °C. The compound further returned an EC50 in the data set with ABCA1 protein (ABCA1 protein detection assay) of 180 nM. For the same compound, the “% increase of ABCA1 at 3 μM” value in the data set with ABCA1 protein turned out to be 91.3% @ 3 μM. In addition, at 10 µM the inhibition at human CB2 receptor was 12.7%. Besides, the inhibition at 10 µM on human CB1 receptor (10 μM, HEK cell membranes, radioligand [3H]-CP-55,940) was determined as 24.1%.
On to `CO/N=C(/CNC(=O)c1cnc(O[C@@H](C)C(F)(F)F)c(-c2ccc(Cl)cc2)c1)C1CC1` [Example 31, 5-(4-Chloro-phenyl)-N-{2-cyclopropyl-2-[(E)-methoxyimino]-ethyl}-6-((S)-2,2,2-trifluoro-1-methyl-ethoxy)-nicotinamide], for which the melting point lay in the range of 103 to 106 °C. The “% increase of ABCA1 at 3 μM” value in the data set with ABCA1 protein worked out at 74.5% @ 3 μM. At human CB2 receptor, the inhibition at 10 µM is 3.6%. In addition, the inhibition at 10 µM on human CB1 receptor turned out to be 39.3%.
